From patent US20220387358A1, “CERAMIDE ANALOG SACLAC MODULATES SPHINGOLIPID LEVELS AND MCL-1 SPLICING TO INDUCE APOPTOSIS IN ACUTE MYELOID LEUKEMIA” (University of Virginia Patent Foundation, priority 2019, published 2022)
One block for each molecule: values may come before it.

Experiments:
hAML cell lines = assay: Venetoclax sensitivity of hAML cell lines; format: cell-based, human; settings: sensitive (MV4-11, MOLM-13, OCL-AML2) vs resistant (MM-6, THP-1, HL-60/VCR, OCI-AML3)
Procedure: Venetoclax sensitive cell lines can be co-treated with SACLAC (0.3 to 2.5 μM) and venetoclax (1 to 32 nM). […] Cell viability can be determined by MTS assay 24 hours after treatment. CompuSyn software (ComboSyn Inc., Paramus, N.J., United States of America) can be used to determine synergy. A combination index (CI) of >1, 1, and <1 indicates antagonism, additive effect, and synergism, respectively, with increasing synergism indicated by values approaching zero.

OCI-AML2 cells = assay: Western blot of SF3B1, Mcl-1S and Mcl-1L protein expression; format: cell-based, human
Procedure: Cells were plated at 2.5×10^5 cells per ml in 6-well plates and treated with drug, vehicle or siRNA at the indicated doses and time points. Cells were harvested, washed with PBS and lysed prior to preparation of protein extracts for western blotting.
More particularly, cells were lysed with RIPA buffer (#R0278, Sigma, St. Louis, Mo., United States of America) containing phosphatase inhibitor cocktails 2 and 3 (Sigma #P5726, #P0044) and protease inhibitor cocktail (#P8340, Sigma, St. Louis, Mo., United States of America). Protein was quantified using a bicinchoninic acid (BCA) protein assay kit (#23225, Pierce, Waltham, Mass., United States of America). Samples were resolved on a Bolt 4-12% SDS-PAGE gel (#NW00082, ThermoFisher Scientific, Waltham, Mass., United States of America) and transferred to PVDF membrane (#170-4274, Bio-Rad Laboratories, Hercules, Calif., United States of America). Antibodies were obtained from Cell Signaling Technology (Danvers, Mass., United States of America) unless indicated otherwise. Primary antibodies used were: Mcl-1 (#5453, RRID #AB 10694494), SF3B1 (#14434, RRID #AB 2798479), β-actin (#3700, RRID #AB_2242334) and AC (BD Biosciences #612302 (San Jose, California, United States of America), RRID #AB_399617). Secondary antibodies used were HRP-linked goat anti-mouse (#7076, RRID #AB_330924) or goat anti-rabbit IgG (#7074, RRID # AB_2099233). Clarity Max Western ECL Substrate (#1705062, Bio-Rad Laboratories, Hercules, Calif., United States of America) was added to visualize relative protein expression by chemiluminescence using the Bio-Rad ChemiDoc MP imaging system (Bio-Rad Laboratories, Hercules, Calif., United States of America). Quantification was done using Bio-Rad ImageLab 6.0.1 software (Bio-Rad Laboratories, Hercules, Calif., United States of America). For quantification, bands were normalized to β-actin as a loading control.

acid ceramidase (AC) = biological target: T1, acid ceramidase (AC) (Homo sapiens, UniProt Q13510); assay: Acid ceramidase activity assay (RBM14C12 fluorogenic substrate) in human AML cell lines; format: cell-based; settings: LCL204 5 or 10 μM vs SACLAC 1.25 or 2.5 μM; HL-60/VCR, THP-1, OCI-AML2
T1 construct: endogenous in cells; host or cells: HL-60/VCR, THP-1 and OCI-AML2 human AML cell lines
T1 sequence (Q13510 143-395 limits assumed): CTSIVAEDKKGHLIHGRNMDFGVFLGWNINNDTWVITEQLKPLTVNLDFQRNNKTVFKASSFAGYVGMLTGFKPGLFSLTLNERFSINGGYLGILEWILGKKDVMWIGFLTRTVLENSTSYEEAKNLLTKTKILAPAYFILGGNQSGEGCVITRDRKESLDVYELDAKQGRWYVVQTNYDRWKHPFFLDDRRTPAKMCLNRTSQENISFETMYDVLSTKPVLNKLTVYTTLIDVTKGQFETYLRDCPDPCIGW
T1 sequence (Q13510 22-142 limits assumed): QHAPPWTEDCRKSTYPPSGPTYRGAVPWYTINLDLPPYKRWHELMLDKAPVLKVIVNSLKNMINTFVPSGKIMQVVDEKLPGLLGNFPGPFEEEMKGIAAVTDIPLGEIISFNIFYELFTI
Procedure: Cells were seeded at 2×10^4 cells per well in 50 μl Acid ceramidase activity was measured at 24 hours using the RBM14C12 fluorogenic substrate as previously described (22,34).

Structure (SMILES): CC1(C)CCC(CN2CCN(c3ccc(C(=O)NS(=O)(=O)c4ccc(NCC5CCOCC5)c([N+](=O)[O-])c4)c(Oc4cnc5[nH]ccc5c4)c3)CC2)=C(c2ccc(Cl)cc2)C1 [Venetoclax]
difference in sensitivity between venetoclax sensitive and resistant cell lines (hAML cell lines): > 100 fold

Structure (SMILES): CO[C@]1(C)C[C@@]2(CO2)[C@H](O)[C@@H](/C=C/C(C)=C/C[C@@H]2O[C@H](C)[C@H](NC(=O)/C=C\[C@H](C)OC(C)=O)C[C@@H]2C)O1 [Spliceostatin A, reference compound]
Mcl-1S protein (OCI-AML2 cells; 5, 10 or 20 nM, 6 hours): dose-dependent increase

Structure (SMILES): CCCCCCCCCCCCC/C=C/[C@@H](O)[C@H](CO)NC(=O)CCCCCCCCCCCCCCC [C16 ceramide, reference compound]
SF3B1 protein (OCI-AML2 cells; C16 ceramide 20 μM, 48 hours): reduction | ratio of Mcl-1S to Mcl-1L (OCI-AML2 cells; C16 ceramide 20 μM, 48 hours): increase

Structure (SMILES): CN(C)CC[C@H](CSc1ccccc1)Nc1ccc(S(=O)(=O)NC(=O)c2ccc(N3CCN(Cc4ccccc4-c4ccc(Cl)cc4)CC3)cc2)cc1[N+](=O)[O-] [ABT-737, 4-[4-[[2-(4-chlorophenyl)phenyl]methyl]piperazin-l-yl]-N-[4-[[(2R)-4-(dimethylamino)-1-phenylsulfanylbutan-2-yl]amino]-3-nitrophenyl]sulfonylbenzamide, reference compound]
Mcl-1 cleavage fragment (caspase-mediated) (OCI-AML2 cells; ABT-737 75 nM, 24 hours, abrogated by Z-VAD-FMK 50 μM): smaller fragment of approximately 22 kDa

dose required to achieve similar AC inhibition as SACLAC (acid ceramidase (AC)): four-fold higher dose
Structure (SMILES): CCCCCCCCCCCCCCN[C@H](CO)[C@H](O)c1ccc([N+](=O)[O-])cc1 [LCL204, (1R, 2R)-2-N-(tetradecylamino)-1-(4′-nitrophenyl)-1,3-propandiol, reference compound]
